Biological target: T1, aurora A kinase (Homo sapiens, UniProt O14965)
T1 sequence (O14965 1-403): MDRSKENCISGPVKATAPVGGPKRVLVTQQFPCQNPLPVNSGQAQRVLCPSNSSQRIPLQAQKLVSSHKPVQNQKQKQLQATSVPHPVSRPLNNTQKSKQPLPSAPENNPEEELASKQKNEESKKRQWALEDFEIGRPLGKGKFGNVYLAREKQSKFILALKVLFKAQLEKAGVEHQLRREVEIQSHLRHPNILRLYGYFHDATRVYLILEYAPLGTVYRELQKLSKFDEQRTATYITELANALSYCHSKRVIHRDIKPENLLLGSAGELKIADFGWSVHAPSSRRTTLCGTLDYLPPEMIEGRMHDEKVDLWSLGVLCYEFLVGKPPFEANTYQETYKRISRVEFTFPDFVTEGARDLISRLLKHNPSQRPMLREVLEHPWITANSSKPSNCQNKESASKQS
Test: Aurora A in vitro kinase assay (ELISA)
Format: biochemical
Conditions: 30 μM ATP, 45 minutes
Description: Kinase activities were measured by Enzyme-Linked Immunosorbent Assay (ELISA): Maxisorp 384-well plates (Nunc) were coated with recombinant fusion protein comprising residues 1-15 of Histone H3 fused to the N-terminus of Glutathione-S-Transferase. Plates were then blocked with a solution of 1 mg/mL I-block (Tropix Inc) in phosphate-buffered saline. Kinase reactions were carried out in the wells of the ELISA plate by combining an appropriate amount of Aur A and B kinases and/or mutants thereof with test compound and 30 μM ATP. The reaction buffer was 1× Kinase Buffer (Cell Signaling Technologies) supplemented with 1 μg/mL I-block. Reactions were stopped after 45 minutes by addition of 25 mM EDTA. After washing, susbstrate phosphorylation was detected by addition of anti-phospho-Histone H3 (Ser 10) 6G3 mAb (Cell Signaling cat #9706) and sheep anti-mouse pAb-HRP (Amersham cat# NA931V), followed by colorimetric development with TMB.

| SMILES | IC50 [nM] |
| --- | --- |
| O=C(Nc1ccccc1Oc1nc(Nc2ccc(N3CCOCC3)cc2)ncc1Cl)C1CC1 [compound 80] | 36.3 |
| O=C(Nc1ccccc1Nc1nc(Nc2ccc(N3CCOCC3)cc2)ncc1[N+](=O)[O-])C1CC1 [compound 127] | 10.2 |
| O=C(/C=C/c1ccccc1)Nc1ccccc1Nc1nc(Nc2ccc(N3CCOCC3)cc2)ncc1Cl [compound 63] | 4.4 |
| O=C(Nc1ccccc1Nc1nc(Nc2ccc(N3CCOCC3)cc2)ncc1Cl)c1ccccc1 [compound 67] | 18.1 |
| O=C(Nc1ccccc1Nc1nc(Nc2ccc(N3CCOCC3)cc2)ncc1F)C1CC1 [compound 111] | 5 |
| CC(C)(C)C1CCC(NC(=O)c2ccc(Nc3ncc(Cl)c(Nc4ccccc4NC(=O)C4CC4)n3)cc2)CC1 (centres unmarked) [compound 40] | 12.1 |
| Nc1ccccc1Oc1nc(Nc2ccc(N3CCS(=O)(=O)CC3)cc2)ncc1Cl [compound 83] | 5 |
| O=C(Nc1ccccc1Nc1nc(Nc2ccc(N3CCOCC3)cc2)ncc1Cl)C1CCCCC1 [compound 75] | 14.1 |
| O=C(Nc1ccccc1Nc1nc(Nc2ccc(-n3cccc3)cc2)ncc1Cl)C1CC1 [compound 53] | 6.4 |

Further compounds by falling IC50, results first:

| IC50 [nM] | SMILES |
| --- | --- |
| 4.3 | O=C(NC1CC1)c1ccccc1Nc1nc(Nc2ccc(N3CCOCC3)cc2)ncc1Cl [compound 85] |
| 4.2 | CC(C)(C)C(=O)Nc1ccccc1Nc1nc(Nc2ccc(N3CCOCC3)cc2)ncc1Cl [compound 77] |
| 2.5 | CN(C)CCNC(=O)c1ccc(Nc2ncc(Cl)c(Nc3ccccc3NC(=O)C3CC3)n2)cc1 [compound 9] |
| 1.8 | O=C(Nc1ccccc1Nc1nc(Nc2ccc(C(=O)N3CCC(O)(Cc4ccccc4)CC3)cc2)ncc1Cl)C1CC1 [compound 44] |
| 1.3 | N#Cc1ccc(Nc2ncc(Cl)c(Nc3ccccc3NC(=O)C3CC3)n2)cc1 [compound 32] |

— patent US20100144732A1, “PYRIMIDINE KINASE INHIBITORS” (priority 2006, published 2010)
